pIC50: −log10 of the molar value. Structures can show the parent of a compound that is named as a salt. Where two headings read alike, the source gives them in different places.
System: PAM 212 keratinocytes
Assay: PAM 212 keratinocyte growth inhibition assay (photobiological activity; Toxicity, Table I)
Type: cell-based
Conditions: Mus musculus, PAM212, light or radiation study
Description: Psoriasis, mycosis fungolides, eczema, scleroderma, cancer, and similar proliferative diseases are often characterized by abnormal cell growth regulation. Application of PUVA therapy to correct proliferative disorders on the skin or internally, especially psoriasis, is one clinical expression of photochemotherapy. The use of the assay described in Example 16 is based on the observation that phototherapeutics are extremely potent inhibitors of growth factor binding in mammalian cells including humans and this inhibition arrests the proliferative disorder. This assay was performed in the cell culture laboratory. For a discussion of cell growth assays see, e.g:, J. Laskin et al., Cancer Research, vol. 39, pp. 383-390 (1979) and E. Yurkow and J. Laskin, Cancer Chemotherapy and Pharmacology, vol. 27, pp. 315-319, (1991). Inhibition of cell growth is dependent on dose ol the phototherapeutic and on the quanta of light in the 320-400 nm wavelength (ultraviolet light A). It is also structure-dependent, that is, there is a direct correlation between those specific phototherapeutics currently used that are clinically active and their ability to inhibit the growth of the cells.
Representative examples of the compounds described and claimed herein were tested in this assay for biological activity and found to be potent inhibitors of cell growth. Inhibition of cell growth was rapid, dependent on concentration, and required light activation. […] A description of this assay follows.
The photobiological activity was assayed using a keratinocyte cell line grown in a monolayer culture. In this assay, PAM 212 keratinocytes were grown in Dulbecco's Modified Eagle's medium supplemented with 10% newborn calf serum in a 5% carbon dioxide incubator. Cells were inoculated into 6-well Falcon plastic culture dishes at 25,000 cells per well. After 24 hours, the medium was charged to fresh growth medium supplemented with increasing concentrations of the test compounds or the control medium. Controls and test concentrations were analyzed in triplicate.
These plates were then incubated in a 37° C. carbon dioxide incubator. […] The incident light on the culture plates was 2.4 mW/cm^2 as measured with an International Light UV radiometer, Model IL 442A. […]
After completion of the irradiation phase, the cell culture medium was drained, the cells refed with fresh growth medium and then re-incubated in the carbon dioxide incubator to allow for cell growth. After 4-5 days of growth the culture plates were removed from the incubator and the cell culture medium was drained. The cells were detached from the plates with trypsin and counted in a Coulter Counter. For control cells or for cells treated with test compounds, cell growth was determined as a percentage of control. […] This value is shown in Table I for a variety of phototherapeutics.

[1] = with UVA (320-400 nm) 1.28 J/square centimeter after 30 minutes incubation, 4-5 days of growth, read-out: Photo-toxicity (IC50 values), concentration at which photoactivated test compound inhibited growth by 50%
[2] = dark (no UVA light), read-out: Dark-toxicity (IC50 values)

Cc1cc(=O)oc2c(C)c(O)c([N+](=O)[O-])cc12 [Example 1, 6-Nitro-4,8-dimethyl-7-hydroxycoumarin]
pIC50 [1]: < 3.52

C=CCOc1c([N+](=O)[O-])cc2c(C)cc(=O)oc2c1C [Example 2, 6-Nitro-4,8-dimethyl-7-allyloxycoumarin]
pIC50 [2]: < 4.00
pIC50 [1]: 5.30

C=CCOc1c(N)cc2c(C)cc(=O)oc2c1C [Example 3, 6-Amino-4.8-dimethyl-7-allyloxycoumarin]
pIC50 [2]: < 4.00
pIC50 [1]: 3.62

Cc1cc(=O)oc2c(C)c3c(cc12)C(CI)CO3 (stereo not shown) [Example 5, 4,8-Dimethyl-4'-iodomethyl-4',5'-dihydropsoralen]
pIC50 [2]: < 4.00
pIC50 [1]: 7.00

Cc1c(Br)c(=O)oc2c(C)c3c(cc12)C(CI)CO3 (stereo not shown) [Example 6, 3-Bromo-4,8-dimethyl-4'-iodomethyl-4',5'-dihydropsoralen]
pIC50 [1]: 6.30 to 6.70

Cc1cc(=O)oc2c(C)c3c(cc12)C(C[n+]1ccccc1)CO3 (stereo not shown) [Example 9, 4,8-Dimethyl-4'-pyridiniummethyl-4',5'-dihydropsoralen Iodide Salt]
pIC50 [1]: 6.30

Cc1c(Br)c(=O)oc2c(C)c3c(cc12)C(C[n+]1ccccc1)CO3 (stereo not shown) [Example 12, 3-Bromo-4,8-dimethyl-4'-pyridiniummethyl-4',5'-dihydropsoralen Iodide Salt]
pIC50 [2]: 4.15
pIC50 [1]: < 4.52

Cc1cc(=O)oc2c(C)c3c(cc12)C(CC#N)CO3 (stereo not shown) [Example 15, 4,8-Dimethyl-4'-cyanomethyl-4',5'-dihydropsoralen]
pIC50 [2]: < 4.00
pIC50 [1]: 5.52

From patent US6177424A, “4'-Substituted-4',5'-dihydropsoralens and therapeutical uses thereof” (priority 1999, dated 2001)
